Results from patent US12565661B2, “Compositions and methods for weed control” (Syngenta Crop Protection AG, priority 2019, dated 2026).
Where “and” joins values, the source holds several entries; their conditions need not be identical. Identical values can stand only once.

Key:
Type in all cases: in vivo
[1] = test system: transgenic tobacco expressing SDPS genes and wild-type Samsun tobacco; test: Herbicide tolerance of transgenic tobacco sprayed with 1000 g/ha Herbicide Compound 1, visual damage score; conditions: for Average Damage (%): 1000 g/ha spray, average across population
Description: Populations of transgenic tobacco comprising 20-30 transgenic events per plant transformation constructs were generated as described in example 4. These lines were clonally propagated and 1 clone per event was sprayed with 1000 g/ha of Herbicide Compound 1. Herbicidal damage was visually assessed across the population and a herbicide damage score given at 7 and 14 days. […] indicates no visible damage or stunting whereas a score of 100 indicates a complete death of the plant.
The results in FIG. 3 show the damage scores for 4 populations of plants expressing either Arabidopsis SDPS2 gene (SEQ ID NO.2), the Arabidopsis SDPS2 F240L mutated gene (SEQ ID NO.3). the Chlorella fusca SDPS gene (SEQ ID NO. 10) or the Chlorella fusca SDPS F227L mutated gene (SEQ ID NO.11). A control population of wild-type Samsun tobacco was also assessed for herbicide damage. […] The Arabidopsis gene (SEQ ID NO.2) performs better than the Chlorella wild-type gene in terms of herbicide tolerance and this tolerance is again improved by the addition of the F240L mutation (SEQ ID NO.3).

[2] = test system: Nicotiana tabacum Samsun wild type and transgenic lines (plantlets); test: Tolerance of transgenic tobacco T1 lines in liquid culture, bleaching damage score; conditions: after 7 days
Experimental: Nicotiana tabacum Samsun wild type and transgenic lines were sterilized by placing in 30 ml Universals containing approximately 15 ml freshly made 2% Virkon and rotated on a roller for 15 mins. The Virkon was pipetted off using an extended fine tip mini pastette and the seed washed 4 times with 1% PPM (Plant Preservative Mixture, P820, 250 ml. Apollo Scientific Ltd.)
Seed was germinated on 90 mm Petri dishes containing 1/3 MS+0.8% agarose (SPI, Duchefa #DU 0463). pH5.7 (for WT) and 1/3 MS+0.8% agarose+100 ug/ml kanamycin (for the transgenic). Approximately 100 seed of each was spread on to each Petri dish. NB the transgenic seed is not homozygous therefore was plated on Kan to select. (MS=Murashige & Skoog MS Medium, #M0221, Melford Labs).
Plates were placed in a clear plastic “incubating box” (lids under plate) and incubated in a controlled environment room with the following conditions: • Temperature: Day 25° C./Night 25° C. • Light settings: Photo period 16 hours, Light level ˜50 μmol/m^2/s Dose Response Test:
7 day old tobacco plantlets (3 plantlets per well) were transferred aseptically to 24 well plates (cell-culture cluster flat bottom with lid) (Corning Costar #3524) containing 2 ml % MS+30 mM sucrose (Fisher #10638403), pH5.7 per well. Herbicide 2 was two-fold serially diluted in DMSO starting at 10 ppm and added to the media. DMSO only was added to the zero compound control wells. NB.
Plates were placed in clear plastic “Incubating boxes” (lid under plate) and incubated for 2 weeks in a controlled environment room with the following conditions: • Temperature: Day 24° C./Night 18° C. • Light settings: Photo period 16 hours, Light level 600 μmol/m^2/s. Assessment:
Plantlets were assessed visually for bleaching symptomology after 7 days and a damage score given for each well.

[3] = test system: transgenic tobacco overexpressing Arabidopsis SDPS F240L gene and wild-type tobacco; test: Herbicide damage of transgenic tobacco sprayed with 75 g/ha Aclonifen or 25 g/ha herbicide Z; conditions: 7 days post treatment; for average herbicide damage score: 75 g/ha
Experimental: A further set of transgenic tobacco overexpressing the Arabidopsis SDPS F240L gene (SEQ ID NO.3) were created as described above. These plants were sprayed with 75 g/ha Aclonifen or 25 g/ha herbicide Z. The plants were assessed for herbicide damage at 7 days post treatment and compared to wild-type tobacco plants.
Numerous transgenic tobacco events expressing the Arabidopsis SDPS2 F240L gene (SEQ ID NO.3) show no damage from the herbicide treatment in contrast to the damage seen on the control plants. The average herbicide damage scores for the transgenic tobacco population versus the control wild-type plants are shown in table 6.

Compound: CCOC(=O)C(CC)N(c1c(C)cccc1C)S(=O)(=O)CCl (stereo not shown) [Herbicide Compound Ex. 1]
- Average Damage (%) ([1]; WT Control tobacco): 23.125%
- Average Damage (%) ([1]; tobacco with construct pBin TMV AraSDPS2): 13.25%
- Average Damage (%) ([1]; tobacco with construct pBin TMV AraSDPS2_F240L): 5%
- Average Damage (%) ([1]; tobacco with construct pBin TMV CfSDPS): 25%
- Average Damage (%) ([1]; tobacco with construct pBin TMV CfSDPS_F227L): 10.05%
- tolerance to herbicide (in words) ([1]; tobacco expressing Chlorella fusca SDPS F227L (SEQ ID NO.11)): does display increased tolerance
- tolerance to herbicide (in words) ([1]; tobacco overexpressing Chlorella fusca SDPS (SEQ ID NO. 10)): does not increase tolerance

Compound: CCOC(=O)C(C)N(c1c(C)cccc1C)S(=O)(=O)CC (stereo not shown) [Herbicide Compound Ex. 2]
- bleaching damage score (two replicate plates a/b) ([2]; 0.75 ppm, WT (Samsun)): 0/0
- bleaching damage score (two replicate plates a/b) ([2]; 0.75 ppm, tobacco line ARA SDPS1): 0/0
- bleaching damage score (two replicate plates a/b) ([2]; 0.75 ppm, tobacco line ARA SDPS F240V 1): 0/0
- bleaching damage score (two replicate plates a/b) ([2]; 1.25 ppm, WT (Samsun)): 0/0
- bleaching damage score (two replicate plates a/b) ([2]; 1.25 ppm, tobacco line ARA SDPS1): 0/0
- bleaching damage score (two replicate plates a/b) ([2]; 1.25 ppm, tobacco line ARA SDPS F240V 1): 0/0
- bleaching damage score (two replicate plates a/b) ([2]; 2.5 ppm, WT (Samsun), listed as Herbicide 2): 25/25 and 50/50
- bleaching damage score (two replicate plates a/b) ([2]; 2.5 ppm, tobacco line ARA SDPS1, listed as Herbicide 2): 50/50 and 50/25 and 25/25
- bleaching damage score (two replicate plates a/b) ([2]; 2.5 ppm, tobacco line ARA SDPS F240V 1): 25/25
- bleaching damage score (two replicate plates a/b) ([2]; 5 ppm, WT (Samsun), listed as Herbicide 2): 90/100 and 95/90
- bleaching damage score (two replicate plates a/b) ([2]; 5 ppm, tobacco line ARA SDPS1, listed as Herbicide 2): 100/100 and 90/80 and 80/95
- bleaching damage score (two replicate plates a/b) ([2]; 5 ppm, tobacco line ARA SDPS F240V 1, listed as Herbicide 2): 50/50 (2×) and 50/25
- bleaching damage score (two replicate plates a/b) ([2]; 10 ppm, WT (Samsun), listed as Herbicide 2): 100/100 and 95/100
- bleaching damage score (two replicate plates a/b) ([2]; 10 ppm, tobacco line ARA SDPS1): 100/100
- bleaching damage score (two replicate plates a/b) ([2]; 10 ppm, tobacco line ARA SDPS F240V 1, listed as Herbicide 2): 90/100 (2×) and 100/100

Compound: Nc1c([N+](=O)[O-])ccc(Oc2ccccc2)c1Cl [Aclonifen]
- average herbicide damage score ([3]; Wild type tobacco): 40
- average herbicide damage score ([3]; pBin AraSDPS2 F240L transgenic tobacco): 16.17
- herbicide damage score ([3]; wild type tobacco, individual control plants, Aclonifen 75 g/ha spray): 35 (4×) and 30 (2×) and 60 (2×)
